# Source: patent publication US6310093A (priority 1998, dated 2001)
# Several values for one entry are separate records, joined by “and”; a condition that tells them apart may be missing. Identical values can stand only once. Like-named read-outs stand apart in the source and are kept apart here. Non-standard residues stand in square brackets, D forms with d. Residues, ends and D or L forms follow the SMILES beside them. pGlu = O=C1CC[C@@H](C(=O)O)N1
# Molecular target: T1, glutaminase (brain membranes) (Rattus norvegicus, UniProt P13264)
# T1 construct: Membranes are prepared by homogenization of brain tissue in 330 mM sucrose; from tissue; host or cells: rat brain, crude membranes (17000 G pellet)
# T1 sequence (P13264 73-674 limits assumed): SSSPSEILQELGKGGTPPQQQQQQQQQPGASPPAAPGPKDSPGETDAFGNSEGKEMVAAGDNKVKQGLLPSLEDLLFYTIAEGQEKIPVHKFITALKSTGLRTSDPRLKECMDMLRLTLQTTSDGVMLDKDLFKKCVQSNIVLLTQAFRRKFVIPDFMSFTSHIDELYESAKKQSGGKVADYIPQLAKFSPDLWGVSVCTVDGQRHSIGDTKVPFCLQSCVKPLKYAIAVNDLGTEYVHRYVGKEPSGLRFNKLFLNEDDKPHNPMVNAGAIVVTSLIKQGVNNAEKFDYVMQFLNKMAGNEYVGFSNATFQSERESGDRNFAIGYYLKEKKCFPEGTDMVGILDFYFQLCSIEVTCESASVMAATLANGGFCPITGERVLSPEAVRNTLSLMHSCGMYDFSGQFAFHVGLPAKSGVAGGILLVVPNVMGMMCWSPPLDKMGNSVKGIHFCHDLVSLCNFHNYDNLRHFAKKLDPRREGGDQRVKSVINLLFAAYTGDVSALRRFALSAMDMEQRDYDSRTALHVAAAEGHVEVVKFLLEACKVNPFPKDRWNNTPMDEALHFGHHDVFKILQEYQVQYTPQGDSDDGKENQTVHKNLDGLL
# Test: biochemical
# Set-up: Glutaminase Activity: unit not given here
# Conditions: for Glutaminase Activity: brain membranes
# [1] = read-out: glutaminase activity, phosphate-containing compounds
Structure (SMILES),activity at 3300 µM (read-out: Glutaminase Activity) [%],activity at 9000 µM (read-out: Glutaminase Activity) [%],also measured
CC(C)[C@H](NC(=O)[C@@H](N)CCC(=O)O)C(=O)O [Glu--Val] (H-Glu-Val-OH),122,116,
CC(C)OP(=O)(CCP(=O)(OC(C)C)OC(C)C)OC(C)C [tetraisopropyl ethylene diphosphonate],,,activity at 3000 µM [1]: 75 to 90%; activity at 9000 µM [1]: 70 to 85%
C[C@@H](O)[C@H](NC(=O)[C@@H](N)CCC(=O)O)C(=O)O [Glu--Thr] (H-Glu-Thr-OH),124,123,
NC(CC(=O)O)CC(=O)O [β-glutamic acid],84,,Glutaminase Activity (9000 µM): 73 and 83 and 94
"NC(CC(N)C(=O)O)C(=O)O (stereo not shown) [2,4-diaminopentanedioic acid]",82 ± 7,103 ± 25,
NC(CC(C(=O)O)C(=O)O)C(=O)O (stereo not shown) [γ-carboxy glutamate],100,104,
N[C@@H](CO)C(=O)N[C@@H](CCC(=O)O)C(=O)O [Ser--Glu] (H-Ser-Glu-OH),104,88,
"CCOP(=O)(OCC)c1ccc(P(=O)(OCC)OCC)s1 [2,5-bis(diethoxyphosphoryl) thiophene]",,,activity at 3000 µM [1]: 75 to 90%; activity at 9000 µM [1]: 70 to 85%
N[C@@H](CCC(=O)NCC(=O)O)C(=O)O [γ-Glu--Gly],90 ± 13,,
N[C@@H](Cc1c[nH]c2ccccc12)C(=O)N[C@@H](CCC(=O)O)C(=O)O [Trp--Glu] (H-Trp-Glu-OH),99,86,
C[C@H](CC(=O)O)[C@H](N)C(=O)O (relative stereo) [(±)-threo-3-methylglutamate],91,7,
CC(CC(N)C(=O)O)C(=O)O (racemic) [(±)-threo-4-methylglutamate],170,100,
NCCCC[C@H](NC(=O)[C@@H](N)CCC(=O)O)C(=O)O [Glu--Lys] (H-Glu-Lys-OH),96,93,
CC(=O)NC(CCC(=O)O)C(=O)O (racemic) [N-acetyl-DL-glutamate],92 ± 10,75 ± 10,
CNC(CCC(=O)O)C(=O)O (racemic) [N-methyl-DL-glutamate],102,124,
Cc1ncc(COP(=O)(O)O)c(C=O)c1O [pyridoxal 5-phosphate],,,activity at 3000 µM [1]: 75 to 90%; activity at 9000 µM [1]: 70 to 85%
C[C@@H](CC(=O)O)[C@H](N)C(=O)O (relative stereo) [(±)-erythro-3-methylglutamate],34,18,glutaminase inhibition (in words): moderate inhibition
O=C(O)CCCC(=O)O [glutaric acid],89,75,
N[C@@H](CCC(=O)O)C(=O)NCC(=O)O [Glu--Gly] (H-Glu-Gly-OH),94,95,
CC(N)(CCC(=O)O)C(=O)O (racemic) [α-methyl-DL-glutamate],76,,
N=CN[C@@H](CCC(=O)O)C(=O)O [N-formamino-Glu],89,127,
NCC(=O)N[C@@H](CCC(=O)O)C(=O)O [Gly--Glu] (H-Gly-Glu-OH),94,102,

Structure (SMILES),activity at 3300 µM (read-out: Glutaminase Activity) [%],activity at 9000 µM (read-out: Glutaminase Activity) [%],also measured
CC[C@](N)(CCC(=O)O)C(=O)O [(2S)-α-ethyl glutamic acid],95,,
CSCC[C@H](N)C(=O)N[C@@H](CCC(=O)O)C(=O)O [Met--Glu] (H-Met-Glu-OH),111,98,
N=C(N)NCCC[C@H](N)C(=O)N[C@@H](CCC(=O)O)C(=O)O [Arg--Glu] (H-Arg-Glu-OH),123,118,
"NCC(=O)NC(CC(F)C(=O)O)C(=O)O (stereo not shown) [glycyl-4-fluoroglutamate, Glycyl-4-fluoroglutamate]",55,30,activity at 330 µM (read-out: Glutaminase Activity): 94%; activity at 900 µM (read-out: Glutaminase Activity): 80%
N[C@@H](CC(=O)O)C(=O)N[C@@H](CCC(=O)O)C(=O)O [Asp--Glu] (H-Asp-Glu-OH),77,32,glutaminase inhibition (in words): moderate inhibition
NC(=O)[C@@H](N)CCC(=O)O [L-glutamide],99,96,
NCC(=O)N[C@H](CCC(=O)O)C(=O)O [Gly-D-Glu] (H-Gly-[dE]-OH),109,90,
C[C@H](N)C(=O)N[C@@H](CCC(=O)O)C(=O)O [Ala--Glu] (H-Ala-Glu-OH),117,115,
C[C@H](NC(=O)[C@@H]1CCC(=O)N1)C(=O)N[C@@H](CCC(=O)O)C(=O)O [pyro-Glu--Ala--Glu] ([pGlu]-Ala-Glu-OH),95,76,
C=C(CC(N)C(=O)O)C(=O)O (racemic) [γ-methylene-DL-glutamate],105 ± 10,,
"O=C(O)C(CC=C1c2ccccc2C=Cc2ccccc21)C(=O)O [2-(2-dibenzo(a,d)cyclohepten-5-ylidene)-ethyl malonic acid]",,,dependence of glutaminase inhibition on phosphate level and concentration (in words): inhibition was reduced in the presence of high phosphate levels; the effect was particularly evident; Glutaminase Activity (300 µM): 83 ± 7; Glutaminase Activity (1000 µM): 61 ± 4; activity at 100 µM (read-out: Glutaminase Activity): 86 ± 10%; activity at 300 µM (read-out: Glutaminase Activity): 75 ± 5%; activity at 1000 µM (read-out: Glutaminase Activity): 44 ± 2%
N[C@@H](Cc1ccc(O)cc1)C(=O)N[C@@H](CCC(=O)O)C(=O)O [Tyr--Glu] (H-Tyr-Glu-OH),110,118,
NCC(=O)NCC(=O)N[C@@H](CCC(=O)O)C(=O)O [Gly--Gly--Glu] (H-Gly-Gly-Glu-OH),101,87,
CC(C)(C)OC(=O)NCC(=O)NC(CC(F)C(=O)O)C(=O)O (stereo not shown) [BOC-glycyl-4-fluoroglutamate],52,15,
N[C@@H](CC(F)C(=O)O)C(=O)O (stereo partly shown) [4-fluoroglutamic acid],4.2 ± 1.3,,IC50: 500 µM; activity at 330 µM (read-out: Glutaminase Activity): 67 ± 7%; activity at 1000 µM (read-out: Glutaminase Activity): 30 ± 9%
C=CCCCCCCCCCC(C(=O)O)C(=O)O [2-undec-10-enyl malonate],,,Glutaminase Activity (100 µM): 89 ± 6; Glutaminase Activity (300 µM): 87 ± 2; activity at 100 µM (read-out: Glutaminase Activity): 96 ± 7%; activity at 300 µM (read-out: Glutaminase Activity): 67 ± 2%
CC(C)[C@H](N)C(=O)N[C@@H](CCC(=O)O)C(=O)O [Val--Glu] (H-Val-Glu-OH),114,99,
O=C(O)CC[C@H](NC(=O)OCc1ccccc1)C(=O)O [carbobenzoxy-Glu--OH],65,56,glutaminase inhibition (in words): moderate inhibition
CCOC(=O)CC[C@H](N)C(=O)O [L-glutamate-5-ethyl ester],98,92,
CC(C)(C)OC(=O)N[C@@H](CCC(=O)O)C(=O)O [BOC--Glu--OH],101,100,
CC(=O)N[C@@H](CC(=O)O)C(=O)N[C@@H](CCC(=O)O)C(=O)O [N-acetyl Asp--Glu] (Ac-Asp-Glu-OH),83,,glutaminase inhibition (in words): moderate inhibition
N[C@@H](CCC(=O)O)C(=O)N[C@@H](CCC(=O)O)C(=O)O [Glu--Glu] (H-Glu-Glu-OH),130,141,
